pKd: −log10 of the molar value.
Columns and labels:
[1] = molecular target: T1, RmlA (glucose-1-phosphate thymidylyltransferase, gene 1774) (Pectobacterium actinidiae, UniProt A0ABW8GFN0); assay: microscale thermophoresis, FITC-labelled RmlA; conditions: read-out: binding affinity; 50 mM Tris-HCl, 1 mM MgCl2, 0.05% Tween 20, pH 8.0; ligand as disodium salt
T1 construct: gene rfbA; intact rmlA cloned from GX1 genomic DNA into pET32a; fusion protein; E. coli ArcticExpress (DE3); FITC-labelled

[2] = molecular target: T2, RmlA (glucose-1-phosphate thymidylyltransferase, gene 1774) (Pectobacterium actinidiae, UniProt A0ABW8GFN0, G107A/D108A/N109A/G144A/E159A/V170A/E196A); conditions: read-out: binding affinity; 50 mM Tris-HCl, 1 mM MgCl2, 0.05% Tween 20, pH 8.0; ligand as disodium salt
T2 construct: gene rfbA

Question: What does the source list for O=P(O)(O)O[C@H]1O[C@H](CO)[C@@H](O)[C@H](O)[C@H]1O [G-1-P]?
Answer: pKd [1]: 4.13; pKd [2]: 2.05

Question: Cc1cn([C@H]2C[C@H](O)[C@@H](COP(=O)(O)OP(=O)(O)OP(=O)(O)O)O2)c(=O)[nH]c1=O [dTTP] was tested. Which pKd [1] did it give?
Answer: 3.70

Question: What about the pKd [2] of the same molecule?
Answer: 2.57

Source: paper PMC12227328, “The Enzyme Glucose‐1‐Phosphate Thymidylyltransferase RmlA Plays a Crucial Role in the Pathogenesis of Pectobacterium actinidiae GX1” (Molecular Plant Pathology, 2025)
